This is an account of results in patent US20220054469A1, “FARNESOID X RECEPTOR AGONISTS AND USES THEREOF” (Metacrine, Inc., priority 2018, published 2022).

Some results are limits rather than exact numbers.

This assay concerns the target T1, hFXR (Homo sapiens, UniProt Q96RI1).
T1 construct: expressed in transfected cells; host or cells: CV-1 cells
T1 sequence (Q96RI1 1-486): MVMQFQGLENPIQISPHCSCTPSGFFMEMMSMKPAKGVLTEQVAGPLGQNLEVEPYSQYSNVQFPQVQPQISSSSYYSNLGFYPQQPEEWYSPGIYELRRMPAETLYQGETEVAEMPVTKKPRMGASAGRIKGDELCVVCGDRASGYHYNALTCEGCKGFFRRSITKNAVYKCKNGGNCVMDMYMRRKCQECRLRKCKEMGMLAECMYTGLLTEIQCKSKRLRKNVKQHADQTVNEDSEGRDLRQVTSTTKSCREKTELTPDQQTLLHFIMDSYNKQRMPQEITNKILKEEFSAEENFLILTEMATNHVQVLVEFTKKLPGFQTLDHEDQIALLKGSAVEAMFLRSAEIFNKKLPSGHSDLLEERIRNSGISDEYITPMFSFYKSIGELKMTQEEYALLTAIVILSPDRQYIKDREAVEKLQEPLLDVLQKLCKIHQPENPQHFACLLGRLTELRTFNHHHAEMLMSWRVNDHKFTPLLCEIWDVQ
T1 sequence (P19793 1-462 partner): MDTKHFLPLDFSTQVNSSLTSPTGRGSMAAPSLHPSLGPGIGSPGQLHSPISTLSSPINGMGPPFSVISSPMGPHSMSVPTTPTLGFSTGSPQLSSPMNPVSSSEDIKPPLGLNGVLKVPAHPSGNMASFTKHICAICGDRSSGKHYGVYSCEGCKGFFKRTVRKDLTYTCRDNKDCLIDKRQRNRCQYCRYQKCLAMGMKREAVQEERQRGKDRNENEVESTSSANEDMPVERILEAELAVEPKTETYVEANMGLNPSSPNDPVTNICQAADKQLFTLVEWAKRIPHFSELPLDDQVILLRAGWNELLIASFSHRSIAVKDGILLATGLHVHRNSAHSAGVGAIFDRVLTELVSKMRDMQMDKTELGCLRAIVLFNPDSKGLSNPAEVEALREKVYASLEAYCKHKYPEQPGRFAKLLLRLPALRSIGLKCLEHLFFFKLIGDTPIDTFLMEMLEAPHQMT
Description: In Vitro FXR Assay (TK). The format is cell-based. As to conditions: CV-1 cells transfected with hFXR, hRXR, TK-ECRE-luc and pCMX-YFP; incubated with compound for 18 hrs; luminescence. Put shortly: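 Transactivation is scored as luminescence in CV-1 cell lysates. The cells, co-transfected with hFXR/hRXR and a TK-ECRE-luc reporter, are exposed to DMSO-diluted compounds for 18 h.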

Regarding `COc1ccc(C23CCC(CN(c4cc(-c5noc(C(C)C)n5)ccn4)C(=O)[C@H]4CC[C@H](CC(=O)O)CC4)(CC2)CC3)cc1C` [Compound 4.21, trans-2-(4-((4-(5-lsopropyl-1,2,4-oxadiazol-3-yl)pyridin-2-yl)((4-(4-methoxy-3-methylphenyl)bicyclo[2.2.2]octan-1-yl)methyl)carbamoyl)cyclohexyl)acetic acid], the EC50 lay within 50 to 1000 nM. The value for `COc1ccc(C23CCC(CN(c4cc(-n5cc(C(C)C)cn5)ccn4)C(=O)[C@H]4CC[C@H](CC(=O)O)CC4)(CC2)CC3)cc1C` [Compound 4.22, trans-2-(4-((4-(4-Isopropyl-1H-pyrazol-1-yl)pyridin-2-yl)((4-(4-methoxy-3-methylphenyl)bicyclo[2.2.2]octan-1-yl)methyl)carbamoyl)cyclohexyl)acetic acid] was 50 to 1000 nM.

Take `COc1ccc(C23CCC(CN(c4cc(-c5ccn(C(C)C)n5)ccn4)C(=O)[C@H]4CC[C@H](CC(=O)O)CC4)(CC2)CC3)cc1C` [Compound 4.23, trans-2-(4-((4-(1-Isopropyl-1H-pyrazol-3-yl)pyridin-2-yl)((4-(4-methoxy-3-methylphenyl)bicyclo[2.2.2]octan-1-yl)methyl)carbamoyl)cyclohexyl)acetic acid]: the EC50 was not above 50 nM. Under `COc1ccc(C23CCC(CN(c4cc(-n5ccc(C(C)C)n5)ccn4)C(=O)[C@H]4CC[C@H](CC(=O)O)CC4)(CC2)CC3)cc1C` [Compound 4.24, trans-2-(4-((4-(3-Isopropyl-1H-pyrazol-1-yl)pyridin-2-yl)((4-(4-methoxy-3-methylphenyl)bicyclo[2.2.2]octan-1-yl)methyl)carbamoyl)cyclohexyl)acetic acid] stands 50 to 1000 nM; under `COc1ccc(C23CCC(CN(c4cc(-n5cnc(C(C)C)c5)ccn4)C(=O)[C@H]4CC[C@H](CC(=O)O)CC4)(CC2)CC3)cc1C` [Compound 4.25, trans-2-(4-((4-(4-Isopropyl-1H-imidazol-1-yl)pyridin-2-yl)((4-(4-methoxy-3-methylphenyl)bicyclo[2.2.2]octan-1-yl)methyl)carbamoyl)cyclohexyl)acetic acid], 50 to 1000 nM; under `COc1ccc(C23CCC(CN(c4cc(-n5cnc(C(C)C)n5)ccn4)C(=O)[C@H]4CC[C@H](CC(=O)O)CC4)(CC2)CC3)cc1C` [Compound 4.26, trans-2-(4-((4-(3-Isopropyl-1H-1,2,4-triazol-1-yl)pyridin-2-yl)((4-(4-methoxy-3-methylphenyl)bicyclo[2.2.2]octan-1-yl)methyl)carbamoyl)cyclohexyl)acetic acid], 50 to 1000 nM. For `COc1ccc(C23CCC(CN(c4cc(-n5cnc(C6CC6)n5)ccn4)C(=O)[C@H]4CC[C@H](CC(=O)O)CC4)(CC2)CC3)cc1C` [Compound 4.27, trans-2-(4-((4-(3-Cyclopropyl-1H-1,2,4-triazol-1-yl)pyridin-2-yl)((4-(4-methoxy-3-methylphenyl)bicyclo[2.2.2]octan-1-yl)methyl)carbamoyl)cyclohexyl)acetic acid], the EC50 is not above 50 nM. Under `COc1ccc(C23CCC(CN(c4cccc(-n5cnc(C6CC6)n5)c4)C(=O)[C@H]4CC[C@H](CC(=O)O)CC4)(CC2)CC3)cc1C` [Compound 4.28, trans-2-(4-((3-(3-Cyclopropyl-1H-1,2,4-triazol-1-yl)phenyl)((4-(4-methoxy-3-methylphenyl)bicyclo[2.2.2]octan-1-yl)methyl)carbamoyl)cyclohexyl)acetic acid] stands not above 50 nM; under `COc1ccc(C23CCC(CN(c4cccc(-n5cnc(C6CC6)c5)c4)C(=O)[C@H]4CC[C@H](CC(=O)O)CC4)(CC2)CC3)cc1C` [Compound 4.29, trans-2-(-4-((3-(4-Cyclopropyl-1H-imidazol-1-yl)phenyl)((4-(4-methoxy-3-methylphenyl)bicyclo[2.2.2]octan-1-yl)methyl)carbamoyl)cyclohexyl)acetic acid], not above 50 nM; under `COc1ccc(C23CCC(CN(c4cccc(-c5nnc(C6CC6)o5)c4)C(=O)[C@H]4CC[C@H](CC(=O)O)CC4)(CC2)CC3)cc1C` [Compound 4.30, trans-2-(-4-((3-(5-Cyclopropyl-1,3,4-oxadiazol-2-yl)phenyl)((4-(4-methoxy-3-methylphenyl)bicyclo[2.2.2]octan-1-yl)methyl)carbamoyl)cyclohexyl)acetic acid], 50 to 1000 nM. The value for `COc1ccc(C23CCC(CN(c4cc(-c5cnn(C(C)C)c5)ccn4)C(=O)[C@H]4CC[C@@H](CC(=O)O)CC4)(CC2)CC3)cc1C` [Compound 5.02, cis-2-(4-((4-(1-Isopropyl-1H-pyrazol-4-yl)pyridin-2-yl)((4-(4-methoxy-3-methylphenyl)bicyclo[2.2.2]octan-1-yl)methyl)carbamoyl)cyclohexyl)acetic acid] was 50 to 1000 nM.

What is called EC50 is the concentration at which the effect is half-maximal.
